# In patent publication US20250109157A1, “COMPOUNDS AND METHODS FOR TREATMENT OF VIRAL INFECTIONS” (Gilead Sciences, Inc., priority 2023, published 2025):
# Experiments:
# [1] = biological target: RSV RNP complexes (Human respiratory syncytial virus A, UniProt P28887); test: RSV RNP Polymerase IC50 transcription assay; format: biochemical; conditions: crude RSV RNP complexes, 90 min at 30° C.
# Procedure: Transcription reactions contained 25 μg of crude RSV RNP complexes in 30 μL of reaction buffer (50 mM TRIS-acetate [pH 8.0], 120 mM potassium acetate, 5% glycerol, 4.5 mM MgCl2, 3 mM DTT, 2 mM EGTA, 50 μg/mL BSA, 2.5 U RNasin, 20 μM ATP, 100 μM GTP, 100 μM UTP, 100 μM CTP, and 1.5 μCi [α-^32P] ATP [3,000 Ci/mmol]). The radiolabeled nucleotide used in the transcription assay was selected to match the nucleotide analog being evaluated for inhibition of RSV RNP transcription. To determine whether nucleotide analogs inhibited RSV RNP transcription, compounds were added using a 6-step serial dilution in 5-fold increments. After a 90 min incubation at 30° C., the RNP, reactions were stopped with 350 μL of Qiagen RLT lysis buffer, and the RNA was purified using a Qiagen RNeasy 96 kit. Purified RNA was denatured in RNA sample loading buffer at 65° C. for 10 min and run on a 1.2% agarose/MOPS gel containing 2M formaldehyde. The agarose gel was dried, exposed to a Storm phosphorimaging screen, and developed using a Storm phosphorimager.
# [2] = biological target: DENV2 NS5 (Dengue virus type 2, UniProt P14340); test: DENGUE sshRNA Polymerase IC50; format: biochemical; conditions: 100 nM DENV2 NS5, sshRNA template, 90 minutes at 30° C.
# Procedure: A 244 nucleotide secondary structureless heteropolymeric RNA (sshRNA) with sequence 5′-(UCAG)20(UCCAAG)14(UCAG)20-3′ (SEQ ID NO: 1) is used as the template with 5′-CUG-3′ primer in the DENV2-NS5 polymerase assay. Six two-fold dilutions of compounds starting from 200 nM and no inhibitor control are plated in 96-well plates. […] Enzyme mix is added to compound dilutions and reactions initiated by the addition of a mixture containing 20 μM of three natural NTP plus 2 μM of analog:base matched competing natural NTP containing 1:100 α-^33P-NTP. After 90 minutes at 30° C., 5 μL of the reaction mixtures are spotted on DE81 anion exchange paper. Filter papers are washed three times with Na2HPO4 (125 mM, pH 9) for 5 minutes, rinsed with water and ethanol, then air-dried and exposed to phosphorimager. Synthesized RNA is quantified using Typhoon Trio Imager and Image Quant TL Software and reaction rates are calculated by linear regression using GraphPad Prism 5.0. IC50 values are calculated in Prism by non-linear regression analysis using the dose-response (variable slope) equation (four-parameter logistic equation): Y=Bottom+(Top−Bottom)/(1+10^((LogIC50−X)*HillSlope)).
# [3] = biological target: POLRMT (Homo sapiens, UniProt O00411); test: MTRNAP SNI single nucleotide incorporation; format: biochemical; conditions: 376 nM POLRMT, 500 μM NTP analog
# Procedure: A mixture of MTCN buffer (50 mM MES, 25 mM Tris-HCl, 25 mM CAPS, and 50 mM NaCl, pH 7.5), 200 nM 5′-32P-R12/D18, 10 mM MgCl2, 1 mM DTT, and 376 nM POLRMT was preincubated at 30° C. for 1 min. The reaction was started by addition of 500 μM (final) natural NTP or NTP analogs. At selected time points, the reaction mixture was removed and quenched with gel loading buffer containing 100 mM EDTA, 80% formamide, and bromophenol blue, and heated at 65° C. for 5 min. The samples were run on a 20% polyacrylamide gel (8 M urea), and the product formation was quantified using Typhoon Trio Imager and Image Quant TL Software (GE Healthcare, Piscataway, NJ). The rate of single nucleotide incorporation by mt RNA pol was calculated by fitting the product formation using the single exponential equation: [R13]=A(1−e−kt), where [R13] represents the amount (in nM) of the elongated product formed, t represents the reaction time, k represents the observed rate, and A represents the amplitude of the exponential.
# [4] = MT4 CC50 cytotoxicity; format: cell-based; conditions: human; MT4 cells, 4-5 days, CellTiter Glo
# Procedure: (§1) HEp-2 (1.5×10^3 cells/well) or MT4 (2×10^3 cells/well) cells were plated in 384-well plates and incubated with the appropriate medium containing 3-fold serially diluted compound ranging from 15 nM to 100,000 nM. Cells were cultured for 4-5 days at 37° C. Following the incubation, the cells were allowed to equilibrate to 25° C., and cell viability was determined by adding CellTiter Glo viability reagent. The mixture was incubated for 10 min, and the luminescence signal was quantified using an Envision plate reader. Cell lines were not authenticated and were not tested for mycoplasma as part of routine use in cytotoxicity assays.
# [5] = HEp-2 CC50 cytotoxicity; format: cell-based; conditions: human; HEp-2 cells, 4-5 days, CellTiter Glo; read-out: HEp2 CC50
# Procedure: as §1
# [6] = tested on: RSV strain A2; test: RSV EC50 HEp-2 cytopathic cell protection assay; format: cell-based; conditions: human respiratory syncytial virus, 96 h; HEp-2 cells, RSV strain A2, 4 days, Cell TiterGlo; read-out: RSV EC50 HEp2
# [7] = tested on: Dengue serotype 2 New Guinea C (NGC) strain; test: DENV EC50 Huh7 qPCR assay; format: cell-based; conditions: Dengue virus, Huh-7, Huh7 cells, DENV2 NGC, MOI 0.1, 48 hours
# Procedure: Huh7 (Human hepatocarcinoma 7) cells were maintained in 10% FCS-containing DMEM complete media. On the day of the assay, cells were trypsinized (0.1% Trypsin-EDTA), washed and infected for 2 hours in serum-free DMEM with Dengue serotype 2 New Guinea C (NGC) strain at MOI=0.1 with gentle agitation at 37° C. After 2 hours, cells were washed with serum-free media and suspended in 10% FCS-containing DMEM (Gibco, supplemented with sodium pyruvate, NEAA, Penicillin-Streptomycin). 10^5 cells were plated in triplicate in 96-well plates with compounds dispensed at graded doses (Hewlett-Packard D300 Digital Dispenser). All wells were normalized to 0.25% DMSO. At 48 hours, cells were washed with 1×PBS and all supernatants removed. Total RNA was extracted using RNEasy 96 plates (Qiagen) and used to generate first-strand cDNA using XLT cDNA 5× Supermix (QuantaBio). cDNA was used as a template in a Taqman qPCR duplex reaction specific to DENV2 viral and GAPDH gene expression. EC50 values were determined using Prism Graphpad software, with normalization to a positive control and no compound negative control wells.
# [8] = tested on: Zika virus strain MR766; test: Zika EC50 Huh7 XTT assay; conditions: Huh-7, read-out: Zika EC50 Huh7
# [9] = Huh7 CC50 cytotoxicity; format: cell-based; conditions: human, Huh7 cells, CellTiter-Glo
# Procedure: Human hepatocarcinoma 7 (Huh7) cells were maintained in 10% FCS-containing complete DMEM. On day of assay, cells were trypsinized with 0.1% Trypsin-EDTA, washed and cultured in triplicate at 1-2×10^4 cells/well in 96-well plates with compounds dispensed at graded doses (Hewlett-Packard D300 Digital Dispenser). All wells were normalized to 0.25% DMSO. After 48 h, CellTiter-Gio (Promega) was added and incubated for 10 minutes at room temp before reading on a luminometer. % viability curves were calculated against no compound and no cell control wells. CC50 values (compound concentration for reducing 50% of luminescence signal as a measure of cell viability) were determined using Prism Graphpad software.
# [10] = tested on: SARS-CoV2-Nluc viruses; test: microbe, parasite or virus in culture; format: cell-based, SARS-CoV-2; conditions: Severe acute respiratory syndrome coronavirus 2, A549, 48 h
# [11] = A549-hACE2 CC50 cytotoxicity; format: cell-based; conditions: human, A549-hACE2 cells, CellTiter-Glo
# Procedure: The cytotoxicity of compounds was determined in A549-hACE2 cells in the following manner. Compounds (200 nL) were spotted onto 384-well Grenier plates prior to seeding 5000 A549-hACE2 cells/well in a volume of 40 μL culture medium. The plates were incubated at 37° C. for 48 hours with 5% CO2. On day 2, 40 μL of CellTiter-Glo (Promega) was added and mixed 5 times. Plates were read for luminescence on an Envision (PerkinElmer) and the CC50 values were calculated using a nonlinear regression model (four parameters).
# [12] = tested on: MERS-CoV; test: microbe, parasite or virus in culture; format: cell-based; conditions: Middle East respiratory syndrome-related coronavirus, Vero 76, 72 h, read-out: MERS CoV EC50
# Sequence of POLRMT (O00411 42-1230): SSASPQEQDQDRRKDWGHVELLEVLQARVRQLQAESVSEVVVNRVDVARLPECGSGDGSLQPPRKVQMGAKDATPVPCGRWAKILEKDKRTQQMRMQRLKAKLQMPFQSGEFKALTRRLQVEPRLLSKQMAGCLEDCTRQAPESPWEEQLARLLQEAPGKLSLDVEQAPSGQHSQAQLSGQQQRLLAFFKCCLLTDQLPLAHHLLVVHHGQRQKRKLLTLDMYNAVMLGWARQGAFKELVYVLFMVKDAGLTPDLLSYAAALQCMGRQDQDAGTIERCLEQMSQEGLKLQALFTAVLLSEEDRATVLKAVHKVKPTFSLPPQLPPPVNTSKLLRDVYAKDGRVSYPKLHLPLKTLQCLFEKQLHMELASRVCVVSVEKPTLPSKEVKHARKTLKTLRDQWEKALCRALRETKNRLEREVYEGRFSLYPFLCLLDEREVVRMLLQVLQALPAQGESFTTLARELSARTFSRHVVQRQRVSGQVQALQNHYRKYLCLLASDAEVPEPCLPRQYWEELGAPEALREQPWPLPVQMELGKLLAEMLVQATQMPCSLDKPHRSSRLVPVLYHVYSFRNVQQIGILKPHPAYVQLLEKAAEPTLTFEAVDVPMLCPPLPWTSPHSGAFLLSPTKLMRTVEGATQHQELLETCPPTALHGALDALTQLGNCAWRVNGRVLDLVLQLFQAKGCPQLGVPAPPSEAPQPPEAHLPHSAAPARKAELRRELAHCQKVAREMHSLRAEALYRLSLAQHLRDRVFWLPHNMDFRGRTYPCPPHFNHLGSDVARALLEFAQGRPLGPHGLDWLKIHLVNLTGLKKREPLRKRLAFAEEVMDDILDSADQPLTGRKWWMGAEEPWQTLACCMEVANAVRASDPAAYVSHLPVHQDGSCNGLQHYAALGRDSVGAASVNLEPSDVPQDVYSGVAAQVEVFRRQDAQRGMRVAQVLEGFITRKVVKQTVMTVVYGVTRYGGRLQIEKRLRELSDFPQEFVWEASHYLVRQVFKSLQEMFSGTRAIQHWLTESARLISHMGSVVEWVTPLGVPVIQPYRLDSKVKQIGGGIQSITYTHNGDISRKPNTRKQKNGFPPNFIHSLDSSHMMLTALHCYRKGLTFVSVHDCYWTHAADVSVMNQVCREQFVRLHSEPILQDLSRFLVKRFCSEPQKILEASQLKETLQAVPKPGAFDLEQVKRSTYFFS
# Sequence of RSV RNP complexes (P03421 whole entry): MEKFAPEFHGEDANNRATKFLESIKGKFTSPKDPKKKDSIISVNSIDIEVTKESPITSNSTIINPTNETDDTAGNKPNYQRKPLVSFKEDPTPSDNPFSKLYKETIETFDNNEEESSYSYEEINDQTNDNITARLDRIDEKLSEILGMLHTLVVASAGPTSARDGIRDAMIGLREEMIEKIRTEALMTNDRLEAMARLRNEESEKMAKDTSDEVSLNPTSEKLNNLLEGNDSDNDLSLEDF
# Sequence of RSV RNP complexes (P28887 whole entry): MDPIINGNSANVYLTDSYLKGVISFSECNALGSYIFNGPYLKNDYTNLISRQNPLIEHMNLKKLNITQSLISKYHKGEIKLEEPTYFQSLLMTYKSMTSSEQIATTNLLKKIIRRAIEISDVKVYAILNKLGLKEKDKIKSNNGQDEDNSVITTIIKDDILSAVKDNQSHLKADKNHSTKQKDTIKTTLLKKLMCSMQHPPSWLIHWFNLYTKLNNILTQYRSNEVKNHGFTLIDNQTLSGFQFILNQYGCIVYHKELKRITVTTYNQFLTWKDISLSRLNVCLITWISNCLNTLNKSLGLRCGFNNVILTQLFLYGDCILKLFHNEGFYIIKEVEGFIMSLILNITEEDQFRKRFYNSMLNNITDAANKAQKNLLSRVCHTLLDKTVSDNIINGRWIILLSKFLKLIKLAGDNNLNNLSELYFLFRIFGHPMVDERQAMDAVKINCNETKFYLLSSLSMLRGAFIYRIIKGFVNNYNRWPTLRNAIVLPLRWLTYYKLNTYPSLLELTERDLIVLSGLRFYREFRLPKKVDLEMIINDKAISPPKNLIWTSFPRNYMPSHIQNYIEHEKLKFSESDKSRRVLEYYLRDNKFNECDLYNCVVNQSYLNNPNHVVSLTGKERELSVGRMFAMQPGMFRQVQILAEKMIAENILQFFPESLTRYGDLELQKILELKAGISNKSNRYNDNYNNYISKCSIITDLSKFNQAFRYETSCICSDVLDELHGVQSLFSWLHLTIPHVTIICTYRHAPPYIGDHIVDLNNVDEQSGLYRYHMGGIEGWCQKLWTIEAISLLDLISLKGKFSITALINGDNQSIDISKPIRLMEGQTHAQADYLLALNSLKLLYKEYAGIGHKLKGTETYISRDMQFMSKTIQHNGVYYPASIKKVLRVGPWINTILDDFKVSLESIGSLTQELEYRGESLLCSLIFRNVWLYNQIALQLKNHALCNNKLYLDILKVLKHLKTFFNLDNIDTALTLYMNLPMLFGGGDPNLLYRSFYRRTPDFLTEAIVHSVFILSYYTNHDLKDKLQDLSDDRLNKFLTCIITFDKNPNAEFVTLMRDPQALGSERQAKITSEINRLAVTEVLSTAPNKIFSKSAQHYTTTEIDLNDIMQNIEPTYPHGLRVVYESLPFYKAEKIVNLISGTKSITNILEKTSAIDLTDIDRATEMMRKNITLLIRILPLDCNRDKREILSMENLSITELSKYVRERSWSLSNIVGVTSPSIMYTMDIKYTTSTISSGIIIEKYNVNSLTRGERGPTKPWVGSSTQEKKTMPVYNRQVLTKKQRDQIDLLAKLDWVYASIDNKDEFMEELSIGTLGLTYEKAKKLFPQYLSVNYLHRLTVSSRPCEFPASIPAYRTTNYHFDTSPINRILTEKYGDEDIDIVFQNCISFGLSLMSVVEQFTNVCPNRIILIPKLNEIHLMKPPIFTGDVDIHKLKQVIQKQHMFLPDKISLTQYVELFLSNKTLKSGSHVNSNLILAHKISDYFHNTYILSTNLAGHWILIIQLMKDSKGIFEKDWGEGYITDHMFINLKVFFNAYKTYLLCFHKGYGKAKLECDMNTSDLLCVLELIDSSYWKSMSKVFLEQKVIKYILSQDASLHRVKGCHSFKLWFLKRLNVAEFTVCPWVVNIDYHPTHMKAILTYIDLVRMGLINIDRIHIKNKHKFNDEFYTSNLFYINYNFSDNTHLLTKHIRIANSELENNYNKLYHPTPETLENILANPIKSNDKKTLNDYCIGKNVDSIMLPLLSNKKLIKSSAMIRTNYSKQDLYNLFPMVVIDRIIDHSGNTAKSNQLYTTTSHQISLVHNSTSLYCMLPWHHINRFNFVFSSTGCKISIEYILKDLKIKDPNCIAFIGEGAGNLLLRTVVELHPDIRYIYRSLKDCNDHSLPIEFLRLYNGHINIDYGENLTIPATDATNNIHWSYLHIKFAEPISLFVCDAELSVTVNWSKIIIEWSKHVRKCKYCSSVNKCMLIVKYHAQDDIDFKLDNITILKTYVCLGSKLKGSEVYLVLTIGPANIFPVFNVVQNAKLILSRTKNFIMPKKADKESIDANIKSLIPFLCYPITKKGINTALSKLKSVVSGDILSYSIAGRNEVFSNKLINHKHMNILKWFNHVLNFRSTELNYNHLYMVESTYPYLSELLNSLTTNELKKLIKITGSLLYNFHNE
compound,measurement,setting,value
"N#C[C@@]1(c2csc3c(N)ncnc23)O[C@H](COP(=O)(O)OP(=O)(O)OP(=O)(O)O)[C@@H](O)[C@H]1O [Compound C2, ((2R,3S,4R,5R)-5-(4-aminothieno[3,2-d]pyrimidin-7-yl)-5-cyano-3,4-dihydroxytetrahydrofuran-2-yl)methyl tetrahydrogen triphosphate]",IC50,[1],2.91 µM
same,IC50,[2],8.96 µM
same,MTRNAP SNI (% incorporation),[3],0.61 % incorporation
CC(C)(C)C(=O)SCCOP(=O)(OCCSC(=O)C(C)(C)C)OC[C@H]1O[C@@](C#N)(c2csc3c(N)ncnc23)[C@H](O)[C@@H]1O [Compound C4],CC50,[4],11.1 µM
same,CC50,[5],> 50 µM
same,EC50,[6],2.7 µM
"CCC(CC)COC(=O)[C@H](C)NP(=O)(OC[C@H]1O[C@@](C#N)(c2csc3c(N)ncnc23)[C@H](O)[C@@H]1O)Oc1ccccc1 (stereo partly drawn) [Compound C3, 2-ethylbutyl ((((2R,3S,4R,5R)-5-(4-aminothieno[3,2-d]pyrimidin-7-yl)-5-cyano-3,4-dihydroxytetrahydrofuran-2-yl)methoxy)(phenoxy)phosphoryl)-L-alaninate]",EC50,[7],1.85 µM
same,EC50,[8],6.94 µM
same,CC50 at 48 h,[9],> 25 µM
same,EC50,[10],1.19 µM
same,CC50 at 48 h,[11],> 50 µM
same,CC50,[4],19 µM
same,CC50,[5],> 37.2 µM
same,EC50,[6],0.435 µM
"N#C[C@@]1(c2csc3c(N)ncnc23)O[C@H](CO)[C@@H](O)[C@H]1O [Compound C1, (2R,3R,4S,5R)-2-(4-aminothieno[3,2-d]pyrimidin-7-yl)-3,4-dihydroxy-5-(hydroxymethyl)tetrahydrofuran-2-carbonitrile]",EC50,[12],2.2 µM
same,CC50,[4],> 114 µM
same,CC50,[5],> 100 µM
same,EC50,[6],3.1 µM
